Laboratory results taken from ChEMBL document CHEMBL5113478, “7-Azaindole, 2,7-diazaindole, and 1H-pyrazole as core structures for novel anticancer agents with potential chemosensitizing properties” (Eur J Med Chem, 2022).

Legend:
Type in all cases: functional
HT-29 [1] = test: Antiproliferative activity against human HT-29 cells assessed as […] cell proliferation at 10 uM incubated for 48 hrs in presence of 15 uM of CDDP by WST-1 assay relative to control
PANC-1 [2] = test: Antiproliferative activity against human PANC-1 cells assessed as […] cell proliferation at 10 uM incubated for 48 hrs in presence of 15 uM of CDDP by WST-1 assay relative to control
A549 [3] = test: Antiproliferative activity against human A549 cells assessed as […] cell proliferation at 10 uM incubated for 48 hrs by WST-1 assay relative to control
SAOS-2 [4] = test: Antiproliferative activity against human SAOS-2 cells assessed as […] cell proliferation at 10 uM incubated for 48 hrs in presence of 15 uM of CDDP by WST-1 assay relative to control
A2780 [5] = test: Antiproliferative activity against human A2780 cells assessed as […] cell proliferation at 10 uM incubated for 48 hrs by WST-1 assay relative to control
SAOS-2 [6] = test: Antiproliferative activity against human SAOS-2 cells assessed as […] cell proliferation at 10 uM incubated for 48 hrs by WST-1 assay relative to control
MCF7 [7] = test: Antiproliferative activity against human MCF7 cells assessed as […] cell proliferation at 10 uM incubated for 48 hrs by WST-1 assay relative to control
A2780 [8] = test: Antiproliferative activity against human A2780 cells assessed as […] cell proliferation at 10 uM incubated for 48 hrs in presence of 2 uM of CDDP by WST-1 assay relative to control
Jurkat [9] = test: Antiproliferative activity against human Jurkat cells assessed as […] cell proliferation at 10 uM incubated for 48 hrs by WST-1 assay relative to control
MOLT-4 [10] = test: Antiproliferative activity against human MOLT-4 cells assessed as […] cell proliferation at 10 uM incubated for 48 hrs by WST-1 assay relative to control
A549 [11] = test: Antiproliferative activity against human A549 cells assessed as […] cell proliferation at 10 uM incubated for 48 hrs in presence of 15 uM of CDDP by WST-1 assay relative to control
MOLT-4 [12] = test: Antiproliferative activity against human MOLT-4 cells assessed as […] cell proliferation at 10 uM incubated for 48 hrs in presence of 2 uM of CDDP by WST-1 assay relative to control
HT-29 [13] = test: Antiproliferative activity against human HT-29 cells assessed as […] cell proliferation at 10 uM incubated for 48 hrs by WST-1 assay relative to control
Jurkat [14] = test: Antiproliferative activity against human Jurkat cells assessed as […] cell proliferation at 10 uM incubated for 48 hrs in presence of 2 uM of CDDP by WST-1 assay relative to control
HeLa [15] = test: Antiproliferative activity against human HeLa cells assessed as […] cell proliferation at 10 uM incubated for 48 hrs by WST-1 assay relative to control
MCF7 [16] = test: Antiproliferative activity against human MCF7 cells assessed as […] cell proliferation at 10 uM incubated for 48 hrs in presence of 10 uM of CDDP by WST-1 assay relative to control
PANC-1 [17] = test: Antiproliferative activity against human PANC-1 cells assessed as […] cell proliferation at 10 uM incubated for 48 hrs by WST-1 assay relative to control
HeLa [18] = test: Antiproliferative activity against human HeLa cells assessed as […] cell proliferation at 10 uM incubated for 48 hrs in presence of 15 uM of CDDP by WST-1 assay relative to control

| Compound | Activity (HT-29 [1]) [%] | Activity (PANC-1 [2]) [%] | Activity (A549 [3]) [%] | Activity (SAOS-2 [4]) [%] | Activity (A2780 [5]) [%] | Activity (SAOS-2 [6]) [%] | Activity (MCF7 [7]) [%] | Activity (A2780 [8]) [%] | Activity (Jurkat [9]) [%] | Activity (MOLT-4 [10]) [%] | Activity (A549 [11]) [%] | Activity (MOLT-4 [12]) [%] | Cell viability relative to control (HT-29 [13]) [%] | Activity (Jurkat [14]) [%] | Activity (HeLa [15]) [%] | Activity (MCF7 [16]) [%] | Activity (PANC-1 [17]) [%] | Activity (HeLa [18]) [%] |
| --- | --- | --- | --- | --- | --- | --- | --- | --- | --- | --- | --- | --- | --- | --- | --- | --- | --- | --- |
| CCN1CCN(C(=O)c2c[nH]c3ncc(-c4ccc(S(C)(=O)=O)cc4)cc23)CC1 | 70 | 70 | 95 | 70 | 95 | 95 | 95 | 70 | 95 | 95 | 70 | 70 | 95 | 70 | 95 | 70 | 95 | 70 |
| CCN1CCN(C2CCN(C(=O)c3cc4cc(-c5ccc(S(C)(=O)=O)cc5)cnc4[nH]3)CC2)CC1 | 67 | 67 | 96 | 67 | 96 | 96 | 96 | 67 | 96 | 96 | 67 | 67 | 96 | 67 | 96 | 67 | 96 | 67 |
| CC(C)S(=O)(=O)c1ccc(-c2cnc3[nH]cc(C(=O)N4CCc5ccccc5C4)c3c2)cc1 | 66 | 66 | 85 | 66 | 85 | 85 | 85 | 66 | 85 | 85 | 66 | 66 | 85 | 66 | 85 | 66 | 85 | 66 |
| CS(=O)(=O)c1ccc(-c2cnc3[nH]c(C(=O)N4CCC(c5ccccc5)CC4)cc3c2)cc1 | 66 | 66 | 93 | 66 | 93 | 93 | 93 | 66 | 93 | 93 | 66 | 66 | 93 | 66 | 93 | 66 | 93 | 66 |
| CCN(CC)c1ccc(CNC(=O)c2cc3cc(-c4ccc(S(=O)(=O)C(C)C)cc4)cnc3[nH]2)cc1 | 57 | 57 | 95 | 57 | 95 | 95 | 95 | 57 | 95 | 95 | 57 | 57 | 95 | 57 | 95 | 57 | 95 | 57 |
| CCN1CCN(C(=O)c2cc(-c3ccc(S(C)(=O)=O)cc3)[nH]n2)CC1 | 65 | 65 | 102 | 65 | 102 | 102 | 102 | 65 | 102 | 102 | 65 | 65 | 102 | 65 | 102 | 65 | 102 | 65 |
